For assay [1], the system named is apoE knockout mice fed a 1% cholesterol diet. Kind of assay: Effect of cyclooxygenase inhibition on the development of atherosclerosis in cholesterol-fed apoE knockout mice. The note with it: for extent of lesion development: aortae after 10 weeks, vehicle 25.8±4.5%.
Method: The role of cyclooxygenase-1 and cyclooxygenase-2 on the development of atherosclerosis in apoE knockout mice fed a 1% cholesterol diet was evaluated. […] ApoE^−/− fed a normal chow (n=20) and wildtype littermates (n=40) were used as controls for the study. Twenty-four hour urine samples were collected and the aortae harvested following 10 weeks of treatment.
The target in a further assay is T1, hCox-1 (Homo sapiens, UniProt P23219).
T1 construct: A 2.0 kb fragment containing the coding region of either human or murine COX-1 or human or murine COX-2; made in house; host or cells: SF9 insect cells (baculovirus, pVL1393)
In words: Evaluation of COX-1 activity in vitro (recombinant enzyme, PGE2 ELISA). It is filed as biochemical.

The target of another assay is T2, hCox-2 (Homo sapiens, UniProt P35354).
T2 construct: A 2.0 kb fragment containing the coding region of either human or murine COX-1 or human or murine COX-2; made in house; host or cells: SF9 insect cells (baculovirus, pVL1393)
T2 sequence (P35354 18-604): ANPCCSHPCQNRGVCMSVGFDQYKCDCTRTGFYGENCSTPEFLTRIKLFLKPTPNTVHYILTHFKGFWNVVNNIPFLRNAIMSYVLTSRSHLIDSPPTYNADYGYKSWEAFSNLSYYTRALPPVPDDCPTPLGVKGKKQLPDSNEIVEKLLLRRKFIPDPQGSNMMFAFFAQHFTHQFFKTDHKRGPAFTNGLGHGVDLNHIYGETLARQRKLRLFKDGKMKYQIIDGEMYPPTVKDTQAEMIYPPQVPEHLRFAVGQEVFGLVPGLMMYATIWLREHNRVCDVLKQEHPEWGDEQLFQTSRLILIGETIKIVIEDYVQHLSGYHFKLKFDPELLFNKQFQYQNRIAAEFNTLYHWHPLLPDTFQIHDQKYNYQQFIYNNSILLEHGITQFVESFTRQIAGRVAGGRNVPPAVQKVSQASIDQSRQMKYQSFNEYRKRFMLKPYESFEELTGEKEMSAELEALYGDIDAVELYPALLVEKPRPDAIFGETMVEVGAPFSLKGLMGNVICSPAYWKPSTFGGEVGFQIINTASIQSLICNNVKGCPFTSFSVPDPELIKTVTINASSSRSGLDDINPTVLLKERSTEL
Kind of assay: Evaluation of COX-2 activity in vitro (recombinant enzyme, PGE2 ELISA). It is filed as biochemical. Background: An ELISA detects its analyte on a solid surface through an enzyme-linked reagent.

Setting [2] is: 10 weeks, COX-1 inhibitor 15 mg/kg daily, COX-2 inhibitor 6 mg/kg.
Setting [3] is: COX-1 inhibitor 15 mg/kg daily, COX-2 inhibitor 6 mg/kg.

The values below come from US20030162824A1, “Methods of treating or preventing a cardiovascular condition using a cyclooxygenase-1 inhibitor” (priority 2001, published 2003).

What is called IC50 is the concentration that inhibits the measured activity by half.

Values joined by “and” are separate entries in the source; they are usually repeats but may differ in a detail not shown here. Identical values can stand only once.

T1 sequence (P23219 24-599): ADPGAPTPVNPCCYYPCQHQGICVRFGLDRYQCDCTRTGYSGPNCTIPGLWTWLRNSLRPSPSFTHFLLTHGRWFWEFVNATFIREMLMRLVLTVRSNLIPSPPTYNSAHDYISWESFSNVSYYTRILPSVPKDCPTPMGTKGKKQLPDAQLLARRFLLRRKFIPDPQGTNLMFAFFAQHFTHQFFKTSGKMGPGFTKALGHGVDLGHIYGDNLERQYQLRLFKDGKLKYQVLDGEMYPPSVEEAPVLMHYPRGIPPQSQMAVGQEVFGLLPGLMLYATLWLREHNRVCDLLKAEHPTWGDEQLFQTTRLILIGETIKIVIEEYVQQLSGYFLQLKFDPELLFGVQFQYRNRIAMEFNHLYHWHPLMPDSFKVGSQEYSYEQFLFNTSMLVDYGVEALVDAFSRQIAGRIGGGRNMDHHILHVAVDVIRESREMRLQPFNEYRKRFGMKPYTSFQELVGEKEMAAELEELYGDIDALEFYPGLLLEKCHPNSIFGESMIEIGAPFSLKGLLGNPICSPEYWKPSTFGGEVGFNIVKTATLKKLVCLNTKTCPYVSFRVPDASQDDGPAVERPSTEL
Method for hCox-1: (§1) Recombinant baculoviruses were isolated by transfecting 4 μg of baculovirus transfer vector DNA into SF9 insect cells (2×10^8) along with 200 ng of linearized baculovirus plasmid DNA by the calcium phosphate method.
(§2) Recombinant viruses were purified by three rounds of plaque purification and high titer (10^7-10^8 pfu/mL) stocks of virus were prepared. For large scale production, SF9 insect cells were infected in 10 liter fermentors (0.5×10^6/mL) with the recombinant baculovirus stock such that the multiplicity of infection was 0.1. […] The homogenate was centrifuged at 10,000×G for 30 minutes, and the resultant supernatant was stored at −80° C. before being assayed for COX activity.
(§3) COX activity was assayed as PGE2 formed/μg protein/time using an ELISA to detect the prostaglandin released. CHAPS-solubilized insect cell membranes containing the appropriate COX enzyme were incubated in a potassium phosphate buffer (50 mM, pH 8.0) containing epinephrine, phenol, and heme with the addition of arachidonic acid (10 μM). Compounds were pre-incubated with the enzyme for 10-20 minutes prior to the addition of arachidonic acid. […] The PGE2 formed was measured by standard ELISA technology (Cayman Chemical).
Method for hCox-2: as §1, §2, §3

As to `COc1ccc(-n2nc(C(F)(F)F)cc2-c2ccc(Cl)cc2)cc1`, the “CD41 staining of lesions (platelet deposition)” value in assay [1] (setting [2]) is given as “markedly attenuated”.

With `COc1ccc(-n2nc(C(F)(F)F)cc2-c2ccc(Cl)cc2)cc1` [Compound 1], the “Urinary TXB2 excretion” value in assay [1] (24 h urine after 10 weeks of treatment, COX-1 inhibitor 15 mg/kg daily, vehicle 20.7±4.02) came to 2.63 ± 0.59 ng/mL. For the same compound, in assay [1] (setting [3]), the “extent of lesion development” value is reported as 4.6±0.4%.

Turning to `COc1ccc(-n2nc(C(F)F)cc2-c2ccc(Cl)cc2)cc1` [Compound 2, 5-(4-chlorophenyl)-3-(difluoromethyl)-1-(4-methoxyphenyl)pyrazole], the IC50 was < 0.137 µM and 0.021 µM at hCox-1; greater than 100 µM at hCox-2.

On to `COC(=O)c1cc(-c2ccc(Cl)cc2)n(-c2ccc(OC)cc2)n1` [Compound 3, 5-(4-chlorophenyl)-3-(methoxycarbonyl)-1-(4-methoxyphenyl)pyrazole], for which the IC50 at hCox-1 was 0.284 µM; on hCox-2, greater than 100 µM.

For `COc1ccc(-n2nc(C(=O)O)cc2-c2ccc(Cl)cc2)cc1` [Compound 4, 3-carboxy-5-(4-chlorophenyl)-1-(4-methoxyphenyl)pyrazole], the IC50 at hCox-1 is 55.7 µM; on hCox-2, greater than 100 µM.

With `FC(F)(F)c1cc(-c2ccccc2)n(-c2ccc(Cl)cc2)n1` [Compound 7, 1-(4-chlorophenyl)-5-phenyl-3-(trifluoromethyl)pyrazole], the half-inhibitory concentration (IC50) is 0.085 µM on hCox-1 and greater than 1000 µM at hCox-2.

`FC(F)(F)c1cc(-c2ccc(Cl)cc2)n(-c2ccccc2)n1` [Compound 9, 5-(4-chlorophenyl)-1-phenyl-3-(trifluoromethyl)pyrazole]: the results for the IC50 at hCox-1 and on hCox-2 were 0.123 µM and greater than 1000 µM, respectively.

As for `FC(F)(F)c1cc(-c2ccc(Br)cc2)n(-c2ccccc2)n1` [Compound 12, 5-(4-bromophenyl)-1-phenyl-3-(trifluoromethyl)pyrazole], the IC50 is 0.435 µM at hCox-1 and greater than 500 µM at hCox-2.

As for `FC(F)(F)c1cc(-c2cccc(Br)c2)n(-c2ccccc2)n1` [Compound 13], the IC50 was 3.3 µM on hCox-1 and greater than 100 µM on hCox-2.

With `FC(F)(F)c1cc(-c2ccc(I)cc2)n(-c2ccccc2)n1` [Compound 15, 5-(4-iodophenyl)-1-phenyl-3-(trifluoromethyl)pyrazole], the IC50 at hCox-1 is 0.65 µM; at hCox-2, greater than 100 µM.

For the compound `Cc1ccc(-c2cc(C(F)(F)F)nn2-c2ccc(Br)cc2)cc1` [Compound 16, 1-(4-bromophenyl)-5-(4-methylphenyl)-3-(trifluoromethyl)pyrazole], the IC50 on hCox-1 was less than 0.137 µM; on hCox-2, 0.424 µM.

For the compound `COC(=O)c1nn(-c2ccc(OC)cc2)c2c1CCc1cc(OC)ccc1-2` [Compound 18], the IC50 on hCox-1 is 0.442 µM; on hCox-2 it was greater than 100 µM.

As for `COc1ccc(-n2nc(C(F)F)cc2-c2ccc(SC)cc2)cc1` [Compound 19], the figures for the IC50 at hCox-1 and at hCox-2 were 0.126 µM and greater than 100 µM, respectively.

As for `COc1ccc(-n2nc(CCC(=O)N(C)O)cc2-c2ccc(Cl)cc2)cc1` [Compound 20], the IC50 is 0.027 µM on hCox-1 and greater than 1000 µM at hCox-2.

For the compound `O=[N+]([O-])c1ccc(-c2cc(C(F)F)nn2-c2ccc(F)cc2)cc1` [Compound 21], the IC50 came out at 0.647 µM at hCox-1 and 22.8 µM on hCox-2.

In the case of `O=[N+]([O-])c1ccc(-n2nc(C(F)(F)F)cc2-c2ccc(Cl)cc2)cc1` [Compound 22], the half-inhibitory concentration (IC50) at hCox-1 was 0.81 µM; on hCox-2 it was greater than 100 µM.

With `O=[N+]([O-])c1ccc(-n2nc(C(F)F)cc2-c2ccc(Cl)cc2)cc1` [Compound 23], the IC50 is 0.676 µM on hCox-1 and greater than 100 µM at hCox-2.

Regarding `NS(=O)(=O)c1ccc(-n2nc(C(=O)O)cc2-c2ccccc2)cc1` [Compound 24], the IC50 at hCox-1 is no more than 0.137 µM.

In the case of `COC(=O)c1ccc(-n2nc(C(F)(F)F)cc2-c2ccc(C)cc2)cc1` [Compound 26], the IC50 on hCox-1 is 0.31 µM; at hCox-2, greater than 100 µM.

As to `COc1ccc2c(c1)CSc1c(C(F)(F)F)nn(-c3ccc(Cl)cc3)c1-2` [Compound 27], the IC50 at hCox-1 was 0.141 µM; on hCox-2, greater than 100 µM.

Regarding `COc1ccc(-c2cc(C(F)F)nn2-c2ccc(Cl)cc2)cc1F` [Compound 28], the results for the 50% inhibitory concentration (IC50) on hCox-1 and at hCox-2 were 0.643 µM and 23 µM, respectively.

Regarding `COc1ccc(-n2nc(CO[N+](=O)[O-])cc2-c2ccc(Cl)cc2)cc1` [Compound 29], at hCox-1, the IC50 stood at 0.242 µM.

As to `Cc1ccc(-c2cc(C(F)(F)F)nn2-c2ccc(C(F)(F)F)cc2)cc1` [Compound 30], the IC50 is 0.108 µM on hCox-1 and greater than 100 µM at hCox-2.

Take `COc1ccc(-c2cc(C(F)(F)F)nn2-c2ccc(C)cc2)cc1C` [Compound 31]: the IC50 at hCox-1 worked out at 0.287 µM; on hCox-2, 67.1 µM.

As for `COc1ccc(-n2nc(C(=O)Nc3ccc(N=[N+]=[N-])cc3)cc2-c2ccc(Cl)cc2)cc1` [Compound 32], the IC50 was 0.012 µM on hCox-1 and no less than 1000 µM on hCox-2.

In the case of `NS(=O)(=O)c1ccc(-n2nc(C(F)(F)F)cc2-c2ccc(Cl)cc2)cc1` [selective COX-2 inhibitor, 4-[5-(4-chlorophenyl)-3-(trifluoromethyl)-1H-pyrazol-1-yl]benzenesulfonamide, reference compound], the “CD41 staining of lesions (platelet deposition)” value in assay [1] (setting [2]) is reported as “no effect”. Moreover, the “effect on TXB2 excretion (in words)” value in assay [1] (10 weeks, COX-2 inhibitor 6 mg/kg) is on record as “no effect”. The “extent of lesion development” value in assay [1] (setting [3]) came out at 27.9±1.8%.
